Measurements published in paper PMC4770234, “The conserved GTPase HflX is a ribosome splitting factor that binds to the E-site of the bacterial ribosome” (Nucleic Acids Research, 2016).

Columns and labels:
[1] = molecular target: T1, HflX ΔL372 (Escherichia coli, UniProt P25519); assay: [γ-32P]GTP hydrolysis, phosphate release, multiple turnover; assay type: biochemical; conditions: ribosome-stimulated GTPase; 1 uM HflX, 125 uM GTP, 1 uM ribosomes per methods; labelled compound
T1 construct: C-terminal truncation: codon Leu372 (elsewhere printed Lys372) replaced by amber stop; N-terminal His6-tag, pET28a

[2] = molecular target: T2, HflX (wild-type) (Escherichia coli, UniProt P25519); assay: stopped-flow light scattering of […] ribosome splitting; assay type: biochemical; conditions: 1 uM HflX, 125 uM nucleotide, 0.15 uM 70S ribosomes, 5 mM Mg2+, 20 °C; compared with apo HflX; indirect functional read-out
T2 construct: full length, N-terminal His6-tag, pET28a
T2 sequence (P25519 whole entry): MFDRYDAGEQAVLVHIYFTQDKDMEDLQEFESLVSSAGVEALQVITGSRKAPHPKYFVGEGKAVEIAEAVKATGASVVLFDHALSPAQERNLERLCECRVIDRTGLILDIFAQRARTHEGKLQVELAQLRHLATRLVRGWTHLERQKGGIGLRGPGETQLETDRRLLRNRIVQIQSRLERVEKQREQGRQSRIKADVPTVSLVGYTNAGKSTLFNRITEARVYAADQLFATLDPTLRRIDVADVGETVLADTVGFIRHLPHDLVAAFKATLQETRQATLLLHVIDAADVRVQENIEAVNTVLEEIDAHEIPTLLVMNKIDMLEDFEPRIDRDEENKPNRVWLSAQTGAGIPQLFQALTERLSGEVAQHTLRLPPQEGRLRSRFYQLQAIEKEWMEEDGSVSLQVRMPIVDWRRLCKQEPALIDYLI

T1 sequence (P25519 1-371): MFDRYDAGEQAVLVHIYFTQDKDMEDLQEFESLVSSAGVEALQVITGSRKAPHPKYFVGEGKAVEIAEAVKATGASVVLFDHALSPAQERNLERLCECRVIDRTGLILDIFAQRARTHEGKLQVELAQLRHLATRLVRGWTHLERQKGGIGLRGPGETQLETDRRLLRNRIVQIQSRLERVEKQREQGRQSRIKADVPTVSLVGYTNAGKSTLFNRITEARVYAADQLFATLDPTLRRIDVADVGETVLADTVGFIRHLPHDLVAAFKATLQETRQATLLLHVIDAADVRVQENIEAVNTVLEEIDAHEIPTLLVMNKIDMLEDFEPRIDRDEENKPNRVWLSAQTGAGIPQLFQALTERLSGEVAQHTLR

Structure (SMILES) | [γ-32P]GTP hydrolysis, phosphate release, multiple turnover [1] | stopped-flow light scattering of 70S ribosome splitting [2]
Nc1nc2c(ncn2[C@@H]2O[C@H](COP(=O)(O)OP(=O)(O)OP(=O)(O)O)[C@@H](O)[C@H]2O)c(=O)[nH]1 [GTP] | we tested the ΔL372 truncation variant for GTP hydrolysis finding that it is still active | 
Nc1nc2c(ncn2[C@@H]2O[C@H](COP(=O)(O)OP(=O)(O)NP(=O)(O)O)[C@@H](O)[C@H]2O)c(=O)[nH]1 [GDPNP] |  | HflX•GDPNP dissociated ribosomes to a greater extent than HflX•GDP
